The subject of experiment [1] is hyperoxia-exposed mice. As to the kind of experiment: Lung mechanics: methacholine challenge after neonatal hyperoxia (BPD model), flexiVent Rrs. Format: in vivo, C57BL/6 mice. As to conditions: for Rrs in response to aerosolized methacholine challenge (airway hyperreactivity): 3-week-old mice raised in hyperoxia (60%), compared with room air controls; for Rrs increase in hyperoxia, methacholine dose response (FIG. 5A-B): at 3 weeks and after room air recovery at 6 weeks of age; for Rrs in response to aerosolized methacholine challenge (airway hyperresponsiveness): six-week-old mice, 3 weeks neonatal hyperoxia then room air recovery. On the procedure: Animal protocols were approved by the Institutional Animal Care and Use Committee at Case Western Reserve University (Cleveland, Ohio). Timed pregnant C57BL/6 mice (Charles River Laboratories, Wilmington, Mass.) were maintained on 12-hour light-dark cycles with ad libitum standard food and water. Within 24 hours of birth, litters were pooled and randomized into exposure groups. Paired with a nursing dam, pups were raised in 60% oxygen or room air (21%) for 21 days. Hyperoxia-exposed animals were housed in standard cages placed in a 38-L Plexiglas chamber with a continuous flow of blended oxygen (2 L/min). Oxygen concentrations were monitored twice daily via an oxygen analyzer (miniOX I; MSA Medical, Gurnee, Ill.). To control for oxygen exposures, nursing dams were rotated between paired litters during weekly cage changes. Ventilator studies were conducted and/or tissue harvested within 24 hours of removal from hyperoxia at 3 weeks. A subgroup of animals was returned to room air following 3 weeks of initial hyperoxia exposure and subsequently recovered to 6 weeks of age for adult lung mechanic and GSNOR activity studies.
N6022 is a selective small molecule reversible inhibitor of GSNOR. Powdered N6022 (Nivalis Therapeutics, Boulder, Colo., purchased through MedChem Express, Monmouth Junction, N.J.) was reconstituted in sterile PBS (pH 7.4) and administered to hyperoxia exposed mice as a single 1 mg/kg i.p. injection the day prior to testing lung mechanics.
Under general anesthesia (i.p. ketamine/xylazine), mice were placed supine on a heated surgical table, tracheostomized, and ventilated via a 19-gauge blunt-tip cannula with a commercial rodent ventilator (flexiVent; SCIREQ, Montreal, Canada). Animals were paralyzed (i.p. pancuronium bromide; Sigma-Aldrich) and ventilated at default settings: tidal volume of 10 mL/kg, a rate of 150 breaths/min, a positive end expiratory pressure of 3 cm H2O, and a FiO2 of 50%. Following two recruitment deep inflations of sustained inspiration up to a pressure of 30 cm H2O for 3 seconds, 10 mM GSNO or saline vehicle was aerosolized over 10 seconds using an ultrasonic nebulizer (Aeroneb; SCIREQ) diverted into the ventilator's inspiratory flow. Inhaled GSNO concentration was chosen based upon the published studies in ventilated guinea pigs and human trials in cystic fibrosis. After 5 minutes had elapsed, two recruitment deep inflations were again delivered, and increasing methacholine doses of 0, 12.5, 25, 50, 100, and 200 mg/mL were similarly aerosolized over 10 seconds to generate a dose-response curve. Using computer software (flexiWare 5.1, Version 7.2, SCIREQ), five measurements of respiratory system resistance (Rrs) were calculated by a 2.5 Hz single-frequency forced oscillation maneuver (Snapshot 150), and an average was reported for each methacholine dose. Respiratory mechanics were measured in both 3-week-old mice immediately following sustained hyperoxia exposure and separate 6-week-old mice that were recovered in room air following the initial 3 weeks of hyperoxia exposure.
Data are expressed as means±S.E.M. A minimum of two litters or experiments was used for each study; n represent individual animals or cell transfections. Data containing two groups were first tested for normality and variance and then analyzed by two sample student t test, Welch's t test, or Mann-Whitney U test, as appropriate. For multiple comparisons, analysis of variance with Tukey-Kramer post hoc test was used. Alterations in airway reactivity with increasing doses of methacholine were compared by two-way analysis of variance repeated-measures analysis with Tukey-Kramer post hoc comparisons using a fixed-sequence method from highest to lowest methacholine dose. P, 0.05 was considered statistically significant.

The test system of experiment [2] is room air-exposed mice. As to the kind of experiment: Lung mechanics: methacholine challenge in room air-exposed mice, flexiVent Rrs. In kind it is in vivo, C57BL/6 mice. The settings on record: both ages (3 and 6 weeks), GSNO pretreatment, data not shown. As to the method: Animal protocols were approved by the Institutional Animal Care and Use Committee at Case Western Reserve University (Cleveland, Ohio). Timed pregnant C57BL/6 mice (Charles River Laboratories, Wilmington, Mass.) were maintained on 12-hour light-dark cycles with ad libitum standard food and water. Within 24 hours of birth, litters were pooled and randomized into exposure groups. Paired with a nursing dam, pups were raised in 60% oxygen or room air (21%) for 21 days. Hyperoxia-exposed animals were housed in standard cages placed in a 38-L Plexiglas chamber with a continuous flow of blended oxygen (2 L/min). Oxygen concentrations were monitored twice daily via an oxygen analyzer (miniOX I; MSA Medical, Gurnee, Ill.). […]
Under general anesthesia (i.p. ketamine/xylazine), mice were placed supine on a heated surgical table, tracheostomized, and ventilated via a 19-gauge blunt-tip cannula with a commercial rodent ventilator (flexiVent; SCIREQ, Montreal, Canada). […] Using computer software (flexiWare 5.1, Version 7.2, SCIREQ), five measurements of respiratory system resistance (Rrs) were calculated by a 2.5 Hz single-frequency forced oscillation maneuver (Snapshot 150), and an average was reported for each methacholine dose. […]
Data are expressed as means±S.E.M. A minimum of two litters or experiments was used for each study; n represent individual animals or cell transfections. […]

The conditions of experiment [3]: Gaston et al. 1994; cited from earlier work.

For the compound `N[C@@H](CCC(=O)N[C@@H](CSN=O)C(=O)NCC(=O)O)C(=O)O` [GSNO, S-nitrosoglutathione], the “Rrs in response to aerosolized methacholine challenge (airway hyperreactivity)” value in experiment [1] (pretreatment 10 mM GSNO aerosol over 10 seconds) is “attenuated these changes, such that this group was no longer significantly different from room air controls, except at the highest methacholine dose (200 mg/mL)”. The “Rrs increase in hyperoxia, methacholine dose response (FIG. 5A-B)” value in experiment [1] (10 mM GSNO aerosol) is on record as “attenuated these changes”. Besides, the “Rrs in response to aerosolized methacholine challenge (airway hyperresponsiveness)” value in experiment [1] (pretreatment 10 mM GSNO aerosol) is listed as “remained effective in attenuating the hyperoxia induced airway hyperresponsiveness”. In experiment [2], the “Rrs compared with room air saline-treated controls” value is “did not significantly change Rrs”. In addition, the “bronchodilator potency relative to theophylline” value in experiment [3] is listed as 100 fold.
For `Cc1cc(C(N)=O)ccc1-n1c(CCC(=O)O)ccc1-c1ccc(-n2ccnc2)cc1` [N6022, reference compound], the “Rrs in response to aerosolized methacholine challenge (airway hyperreactivity)” value in experiment [1] (single 1 mg/kg i.p. injection the day prior) is recorded as “attenuated these changes as well, such that this group was no longer significantly different from room air controls at all methacholine doses”. Besides, the “Rrs increase in hyperoxia, methacholine dose response (FIG. 5A-B)” value in experiment [1] (1 mg/kg N6022 injection) is given as “attenuated these changes”. Also, the “Rrs in response to aerosolized methacholine challenge (airway hyperresponsiveness)” value in experiment [1] (1 mg/kg i.p. injection) is on record as “remained effective in attenuating the hyperoxia induced airway hyperresponsiveness”.
